Experimental data from US8658357B2, “Orotate transporter encoding marker genes” (Novozymes A/S, priority 2004, dated 2014).

Experiments:
E. coli XL1-Blue = experiment: Screening for fluoroorotate sensitivity by streaking on ABTG plates; assay type: cell-based, Escherichia coli
Method: QIAGEN™-purified plasmid DNA of pED301 (ysbC), or pDG268 (negative control) was introduced into competent XL1-Blue cells by the heat shock procedure, and transformants harboring plasmid pED301 or pDG268 were selected at 37° C. on LB plates supplemented with 100 micro-g/ml ampicillin. Transformants were screened for fluoroorotate sensitivity by streaking them on ABTG plates without or with 20 micro-g/ml fluoroorotate and incubation overnight at 37° C.

[1] = system: B. subtilis HH263 derived strains ED344 and ED348; experiment: FOA sensitivity by streaking on selective MM plates; assay type: cell-based, Bacillus subtilis
Method: The resulting strains were denoted ED344 (HH263 amyE::pDG268) and ED348 (HH263 amyE::pED301). ED344 and ED348 were streaked on selective MM plates containing 5 micro-g/ml neomycine, one with 20 micro-g/ml FOA, and one without. The screening plates were incubated overnight at 37° C.

[2] = system: L. lactis NCDO712 and MG1363; experiment: Screening for FOA sensitivity by streaking on SA-glucose plates with FOA; assay type: cell-based, Lactococcus lactis ssp. cremoris
Method: Lactococcal cultures were grown at 30° C. either in M17 broth (Terzaghi and Sandine, 1975) or in minimal SA-medium (Jensen and Hammer, 1993) supplemented with 0.5% and 1% glucose, respectively. E. coli strains were grown at 37° C. either in Luria-Bertani (LB) broth or in minimal ABTG medium (Clark and Maaløe, 1967). B. subtilis strains were grown at 37° C. either in LB medium or in minimal MM medium. Agar plates were made by adding […] agar to the broth medium. If necessary, the following supplements were added to the different media: orotate at 20 micro-g/ml, uracil at 20 micro-g/ml, 5-fluoroorotate (FOA) at 20 micro-g/ml, erythromycin at 5 micro-g/ml, chloramphenicol at 5 micro-g/ml for lactococci and 20 micro-g/ml for E. coli, ampicillin at 100 micro-g/ml.
QIAGEN™ purified plasmid DNA of pED210 and pCI3440 was introduced into competent NCDO712 and MG1363 cells by electroporation, and transformants harboring either plasmid pED210 or pCI3440 were selected at 30° C. on SR plates supplemented with 5 micro-g/ml chloramphenicol. Transformants harboring either pED210 or pCI3440 were screened for FOA sensitivity by streaking them on SA-glucose plates with 20 micro-g/ml FOA, and incubation overnight at 30° C.

O=C(O)c1[nH]c(=O)[nH]c(=O)c1F [FOA, 5-fluoroorotate]
FOA resistance/sensitivity (growth) (E. coli XL1-Blue; XL1-Blue harbouring pED301 (ysbC), 20 micro-g/ml fluoroorotate, ABTG plates, overnight 37° C.): sensitive
FOA resistance/sensitivity (growth) (E. coli XL1-Blue; untransformed E. coli XL1-Blue): resistant
FOA resistance/sensitivity (growth) ([1]; ED344 (HH263 amyE::pDG268, control), 20 micro-g/ml FOA, MM plates, overnight 37° C.): resistant
FOA resistance/sensitivity (growth) ([1]; ED348 (HH263 amyE::pED301, ysbC), 20 micro-g/ml FOA, MM plates, overnight 37° C.): sensitive
FOA resistance/sensitivity (growth) ([1]; untransformed B. subtilis HH263 (168 trpC2)): resistant
FOA resistance/sensitivity (growth) ([2]; L. lactis strain ED79.1175 (MG1363 ΔpyrDa ΔpyrDb)): resistant
FOA resistance/sensitivity (growth) ([2]; NCDO712 and MG1363 containing plasmid pED210 (ysbC), 20 micro-g/ml FOA, SA-glucose plates, overnight 30° C.): sensitive
FOA resistance/sensitivity (growth) ([2]; NCDO712 and MG1363 containing vector pCI3440 (control), 20 micro-g/ml FOA, SA-glucose plates, overnight 30° C.): resistant
FOA resistance/sensitivity (growth) ([2]; untransformed L. lactis NCDO712 and MG1363): resistant
